Assay results published in PubChem BioAssay AID1996.
In brackets after ≈: the same amount, converted by molar mass.

Conditions: buffer; pH 7.4; 200.0 µM

| Compound | solubility kinetic |
| --- | --- |
| Cn1c(=O)c2c(nc(N3CCOCC3)n2CCc2ccccc2)n(C)c1=O | 53.9 µg/mL (≈ 146 µM) |
| CC(C)n1c(O)c(C=NCc2ccccc2)c(=O)[nH]c1=S | 19.6 µg/mL (≈ 64.6 µM) |
| Cn1c(COc2ccccc2Br)nc2ccccc21 | 1.4 µg/mL (≈ 4.41 µM) |
| COc1ccc(-c2c(NCCc3ccccc3)c(=O)c2=O)cc1 | 1 µg/mL (≈ 3.25 µM) |
| CCN(CC(=O)NCc1cccs1)C(=O)c1cc(=O)[nH]c2ccccc12 | > 55.4 µg/mL |
| CC1CN(C/C(=N\O)C23CC4CC(CC(C4)C2)C3)CC(C)O1 (configuration not stated) | > 46 µg/mL |
| CC(C)(C)c1ccc(-c2ncccc2O)cc1.Cl | 10.6 µg/mL |
| CCOC(=O)N1CCN(C(=O)c2cc3ccc(OC)cc3[nH]2)CC1 | 19.5 µg/mL (≈ 58.8 µM) |
| CCOC(=O)NN1C(=O)c2ccccc2NC1c1cccnc1 (configuration not stated) | > 46.8 µg/mL |
| CC(=O)c1ccc(S(=O)(=O)N2CCN(C(C)C(=O)N(C)Cc3ccccc3)CC2)cc1 (configuration not stated) | 44 µg/mL (≈ 99.2 µM) |
| CC1(C)CC2CC(C)(CN2Cc2cccc([N+](=O)[O-])c2)C1 (configuration not stated) | 5.2 µg/mL (≈ 18 µM) |
| Cc1ccc(C(=O)NCC(=O)NC23CC4CC(CC(C4)C2)C3)cc1 | 4.2 µg/mL (≈ 12.9 µM) |
| O=C(COc1ccccc1)N1CCCCCCC1 | > 37.1 µg/mL |
| CN(Cc1ccccc1C#N)S(=O)(=O)c1cccs1 | 34.8 µg/mL (≈ 119 µM) |
| Cc1ccc(C(=O)Nc2cccc(-c3nc4ncccc4o3)c2)cc1 | 1.3 µg/mL (≈ 3.95 µM) |
| O=C(NCCc1ccccn1)c1cc2ccccc2o1 | 37.7 µg/mL (≈ 142 µM) |
| O=C(O)/C=C/C(=O)c1c(-c2ccccc2)[nH]c2ccccc12 | > 43.7 µg/mL |
| CC(CCc1ccccc1)NC(=O)c1ccccc1C(=O)O (configuration not stated) | > 44.6 µg/mL |
| O=[N+]([O-])c1cccnc1Oc1ccc(F)cc1F | 28.3 µg/mL (≈ 112 µM) |
| CC1CC(C)CN(S(=O)(=O)c2cccc3nsnc23)C1 (configuration not stated) | 8.4 µg/mL (≈ 27 µM) |
| COc1ccc(NC(=S)NC23CN4CN(CN(C4)C2)C3)c(OC)c1 | > 52.4 µg/mL |
| O=C(Nc1ccc([N+](=O)[O-])c(NC(=O)c2cccnc2)c1)c1cccnc1 | 3.3 µg/mL (≈ 9.08 µM) |
| O=C(Nc1cccc(F)c1)NC1CCCCCCC1 | 9 µg/mL (≈ 34 µM) |
| Cc1ccc(S(=O)(=O)NCC(=O)OCC(=O)N2C(C)CCCC2C)cc1 (configuration not stated) | 53.9 µg/mL (≈ 141 µM) |

| Compound | solubility kinetic |
| --- | --- |
| CCCCCC(O)(CCN1CCCCC1)c1ccccc1.Cl (configuration not stated) | > 48.9 µg/mL |
| O=c1nc(SCc2c(F)cccc2Cl)nc(-c2ccccc2)[nH]1 | 4.1 µg/mL (≈ 11.8 µM) |
| O=C(Nc1nnc(-c2cccnc2)o1)c1cccc([N+](=O)[O-])c1 | > 46.7 µg/mL |
| CCOC(=O)c1c(C)noc1-c1ccco1 | 7.5 µg/mL (≈ 33.9 µM) |
| O=C1CSC(=Nc2ccc(Cl)cc2)N1 | 33.7 µg/mL (≈ 149 µM) |
| CC(=O)N(C)c1ccc(NC(=S)NCC(C)C)cc1 | > 41.9 µg/mL |
| Cc1ccc(NC(=O)C2CCCN2C(=O)OCc2ccccc2)cc1C (configuration not stated) | 11.5 µg/mL (≈ 32.6 µM) |
| CCOc1ccc(OCCCC(=O)NCCOc2ccccc2OC)cc1 | > 56 µg/mL |
| O=C(COC(=O)c1cc2ccccc2cc1O)NCc1ccccc1 | 3 µg/mL (≈ 8.95 µM) |
| COC(=O)c1ccc(CNC(=O)COC(=O)/C=C/c2ccc(OC)c(OC)c2)cc1 | 6.6 µg/mL (≈ 16 µM) |
| Cc1nc(=O)c(-c2ccccc2)c(C)n1-c1ccccc1Cl | > 46.6 µg/mL |
| CC(C)c1ccc(NC(=O)C2CC(=O)N(C3CCCC3)C2)cc1 (configuration not stated) | 36.1 µg/mL (≈ 115 µM) |
| CCOC(=O)N1CCN(S(=O)(=O)c2ccc(C)cc2)CC1 | 28.1 µg/mL (≈ 90 µM) |
| Cn1cnc2c(=O)sc3ccccc3c21 | > 32.4 µg/mL |
| CCN(CC(=O)NCc1cccs1)C(=O)c1ccc(C)o1 | > 46 µg/mL |
| Nc1nc(SCC(=O)N2CCOCC2)[nH]c(=O)c1-c1ccccc1 | > 52 µg/mL |
| O=C(NC1CCCCCC1)c1ccc[nH]c1=S | > 37.6 µg/mL |
| O=[N+]([O-])c1ccc(S(=O)(=O)NCC2CC3CCC2C3)cc1 (configuration not stated) | 5.5 µg/mL (≈ 17.7 µM) |
| CC(=O)Nc1ccc(-n2c(C)ccc2C)cc1 | > 34.2 µg/mL |
| O=C(Nc1ccc(F)cc1)N1CCN(C(=O)C2CCCO2)CC1 (configuration not stated) | > 48.2 µg/mL |
| O=C(CSCc1ccccc1)Nc1ccccc1 | > 38.6 µg/mL |
| O=C(COC(=O)c1cc(=O)c2ccccc2o1)NCC1CCCCC1 | 33 µg/mL (≈ 96.1 µM) |
| O=C(c1ccc(Br)cc1)N1CCN(Cc2ccccc2)CC1 | 38.9 µg/mL (≈ 108 µM) |
